# Experimental data reported in ChEMBL document CHEMBL5726789, “Substituted 6, 7-dialkoxy-3-isoquinoline derivatives as inhibitors of phosphodiesterase 10 (PDE 10A)” (2018).
# Target: cAMP and cAMP-inhibited cGMP 3',5'-cyclic phosphodiesterase 10A (Homo sapiens, UniProt Q9Y233)
# Assay: Homogenous Time-Resolved Fluorescence Resonance Energy Transfer (TR-FRET) Technology: The phosphodiesterase assay was developed using the LANCE® cAMP kit (PerkinElmer). The assay buffer contained HBSS with 5 mM HEPES, 0.1% BSA, and 1.5 mM MgCl2, pH 7.4. PDE10A (BPS Bioscience) was used at 200 pg/well (with a specific activity of 3200 pmole/min/μg with assay conditions: 10 mM Tris-HCl, pH 7.4, 10 mM MgCl2, 1 mM MnCl2, 200 μM cAMP, 2.5 kU 5′ nucleotidase, 37° C., 20 min) and PDE4D3 (BPS Bioscience) was used at 100 pg/well (with a specific activity of 32713 pmole/min/μg with assay conditions: 10 mM Tris-HCl, pH 7.4, 10 mM MgCl2, 1 mM MnCl2, 200 μM cAMP, 2.5 kU 5′ nucleotidase, 37° C., 20 min). The Biotin-cAMP tracer, supplied in 10 mmol/L Tris-HCl buffered (pH 8.0) salt solution with 1 mmol/L ethylenediaminetetraacetic acid (EDTA), 0.1% bovine serum albumin (BSA), and 0.05% sodium azide, is used at a dilution of 1/375. The assay detection mixture contained the LANCE Eu-W8044 labeled streptavidin 1/2250 (supplied in 50 mmol/L Tris-HCl buffered (pH 7.8) salt solution with 0.9% sodium chloride (NaCl), 0.1% BSA, and 0.05% sodium azide) and the Alexa Fluor® 647-anti cAMP antibody 1/200 (supplied in 50 mmol/L Tris-HCl buffered (pH 7.8) salt solution with 0.9% NaCl, 0.1% BSA, and 0.05% sodium azide). Chemical compounds were dissolved in DMSO (final concentration 2% (v/v)).
# Chain of cAMP and cAMP-inhibited cGMP 3',5'-cyclic phosphodiesterase 10A (Q9Y233 whole entry): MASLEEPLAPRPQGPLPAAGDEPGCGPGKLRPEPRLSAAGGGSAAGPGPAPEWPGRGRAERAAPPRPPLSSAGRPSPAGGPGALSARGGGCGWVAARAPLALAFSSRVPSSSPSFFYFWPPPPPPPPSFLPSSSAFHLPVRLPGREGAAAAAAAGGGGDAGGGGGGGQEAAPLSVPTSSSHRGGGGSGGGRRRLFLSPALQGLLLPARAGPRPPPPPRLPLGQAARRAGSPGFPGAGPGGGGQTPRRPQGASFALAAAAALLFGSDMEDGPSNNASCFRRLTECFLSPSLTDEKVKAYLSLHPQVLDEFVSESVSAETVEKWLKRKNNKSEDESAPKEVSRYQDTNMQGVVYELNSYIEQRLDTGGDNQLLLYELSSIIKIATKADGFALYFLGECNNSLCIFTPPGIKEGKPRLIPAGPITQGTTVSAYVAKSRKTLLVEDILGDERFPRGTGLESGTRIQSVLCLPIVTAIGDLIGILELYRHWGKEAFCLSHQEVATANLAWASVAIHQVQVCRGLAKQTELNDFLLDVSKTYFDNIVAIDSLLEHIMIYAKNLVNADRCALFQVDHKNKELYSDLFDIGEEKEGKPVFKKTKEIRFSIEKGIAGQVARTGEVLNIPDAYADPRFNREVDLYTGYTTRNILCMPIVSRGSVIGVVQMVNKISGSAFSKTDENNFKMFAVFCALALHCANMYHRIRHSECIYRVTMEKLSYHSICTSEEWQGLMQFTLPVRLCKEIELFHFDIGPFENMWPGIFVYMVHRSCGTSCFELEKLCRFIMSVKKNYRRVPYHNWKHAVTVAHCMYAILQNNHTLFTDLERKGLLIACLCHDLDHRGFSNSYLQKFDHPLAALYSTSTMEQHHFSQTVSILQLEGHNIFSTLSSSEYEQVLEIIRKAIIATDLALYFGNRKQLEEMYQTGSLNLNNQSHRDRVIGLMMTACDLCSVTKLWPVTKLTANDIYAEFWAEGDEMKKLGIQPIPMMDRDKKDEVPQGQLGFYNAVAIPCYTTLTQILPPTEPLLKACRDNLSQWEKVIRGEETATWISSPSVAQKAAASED
row,IC50,Structure (SMILES)
1,26 nM,CCn1c2ccccc2c2cc(Cc3cncc4cc(OC)c(OC)cc34)ccc21
2,158 nM,CCCc1ncc(Cc2cc3cc(OC)ccc3nc2OCC#N)c2cc(OC)c(OC)cc12
3,59 nM,CCCc1ncc(Cc2ccc3cccc(OC(C)(C)C(N)=O)c3n2)c2cc(OC)c(OC)cc12
